PubChem BioAssay (NCI)
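These data come from cells grown in 96-well plates and exposed to compound for 48 hours at five concentrations. TGI marks complete inhibition of growth.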

Key:
Test in all cases: NCI-60 cell line screen, 48 h
MCF7 breast = tested on: MCF7 breast
NCI-H23 lung = tested on: NCI-H23 lung
OVCAR-3 ovarian = tested on: OVCAR-3 ovarian
TK-10 renal = tested on: TK-10 renal
MOLT-4 leukemia = tested on: MOLT-4 leukemia
M14 melanoma = tested on: M14 melanoma
SNB-19 CNS = tested on: SNB-19 CNS
HOP-92 NSCLC = tested on: HOP-92 NSCLC
U251 CNS = tested on: U251 CNS
UACC-257 melanoma = tested on: UACC-257 melanoma
K-562 leukemia = tested on: K-562 leukemia
SN12C renal = tested on: SN12C renal
RPMI-8226 leukemia = tested on: RPMI-8226 leukemia
CCRF-CEM leukemia = tested on: CCRF-CEM leukemia
NCI/ADR-RES ovarian = tested on: NCI/ADR-RES ovarian
KM12 colon = tested on: KM12 colon
CAKI-1 renal = tested on: CAKI-1 renal
MDA-MB-435 = tested on: MDA-MB-435
HL-60(TB) leukemia = tested on: HL-60(TB) leukemia
SK-OV-3 ovarian = tested on: SK-OV-3 ovarian
HCT-15 colon = tested on: HCT-15 colon
HS 578T breast = tested on: HS 578T breast
OVCAR-8 ovarian = tested on: OVCAR-8 ovarian
SF-268 CNS = tested on: SF-268 CNS
MALME-3M melanoma = tested on: MALME-3M melanoma
SR leukemia = tested on: SR leukemia
UO-31 renal = tested on: UO-31 renal
NCI-H460 lung = tested on: NCI-H460 lung
IGROV1 ovarian = tested on: IGROV1 ovarian
OVCAR-4 ovarian = tested on: OVCAR-4 ovarian
SNB-75 CNS = tested on: SNB-75 CNS
ACHN renal = tested on: ACHN renal
OVCAR-5 ovarian = tested on: OVCAR-5 ovarian
SK-MEL-2 melanoma = tested on: SK-MEL-2 melanoma
LOX IMVI melanoma = tested on: LOX IMVI melanoma
RXF 393 renal = tested on: RXF 393 renal
MDA-N = tested on: MDA-N
SF-539 CNS = tested on: SF-539 CNS
NCI-H226 lung = tested on: NCI-H226 lung
SW-620 colon = tested on: SW-620 colon
A498 renal = tested on: A498 renal
DU-145 prostate = tested on: DU-145 prostate
NCI-H522 lung = tested on: NCI-H522 lung
T-47D breast = tested on: T-47D breast
HCT-116 colon = tested on: HCT-116 colon
SF-295 CNS = tested on: SF-295 CNS
HOP-62 NSCLC = tested on: HOP-62 NSCLC
786-0 renal = tested on: 786-0 renal
SK-MEL-5 melanoma = tested on: SK-MEL-5 melanoma
PC-3 prostate = tested on: PC-3 prostate
MDA-MB-231 breast = tested on: MDA-MB-231 breast
SK-MEL-28 melanoma = tested on: SK-MEL-28 melanoma
UACC-62 melanoma = tested on: UACC-62 melanoma
A549 NSCLC = tested on: A549 NSCLC
HT29 colon = tested on: HT29 colon
COLO 205 colon = tested on: COLO 205 colon

Measured: TGI

COc1cc(O)c2c(c1)OCC1(Cc3cc(OC)c(OC)cc31)C2=O (stereo unspecified)
57.2 µM: T-47D breast
26.7 µM: SK-MEL-5 melanoma
66.8 µM: A549 NSCLC
> 100 µM: all other assays above
